Columns and labels:
[1] = MTT cell viability assay; format: cell-based, human; settings: human, HaCaT keratinocyte cells (healthy control line), 24 h, compounds 0.01–40 μM, healthy control line, read-out: In Vitro Cytotoxicity, EC50 ± SD, HaCaT
Excerpt: Initially, we phenotypically screened the synthesized compounds over a panel of tumor cell lines composed of HEPG2, A375, SHSY5Y, MCF7, and A549 derived from liver tumor, melanoma, neuroblastoma, breast cancer, and lung adenocarcinoma, respectively. We also considered the HaCaT cell line, coming from keratinocytes, as a healthy control line. As reference, cytotoxic chemotherapeutic agent 5-fluorouracil (5-FU) has been used. The results obtained performing the MTT (3-(4,5-dimethylthiazolyl-2)-2,5-diphenyltetrazolium bromide) assay are summarized in Table .
The human neuroblastoma SHSY5Y, melanoma A375, human breast cancer MCF7, nonsmall lung cancer A549, and human epidermal keratinocyte HaCaT cell lines were obtained from ATCC and were grown in Dulbecco’s Modified Eagle Medium (DMEM) supplemented with 10% (v/v) FBS, 2 mM L-glutamine, 100 U/mL penicillin, and 0.1 mg/mL streptomycin.
Cell viability was established by measuring mitochondrial metabolic activity with MTT. In brief, HEPG2 (1 × 10^4 cells/well), A375 (2 × 10^3 cells/well), HaCaT (3 × 10^3 cells/well), A549 (3 × 10^3 cells/well), SHSY5Y (2 × 10^4 cells/well), and MCF 7 (5 × 10^3 cells/well) were plated into 96-well plates for 24 h, then the compounds (0.01–40 μM) were added. After 24h, cells were replaced with a fresh medium containing 0.5 mg/mL MTT. Cells were incubated 1–3 h at 37 °C, then the medium was discarded, and formazan blue crystals in the cells were dissolved in 100 μL per well of a solution containing isopropanol/HCl 0.1 M. The absorbance was measured at 570 nm using a microplate reader (Multiskan Go, Thermo Scientific, Waltham, MA, USA). Cell viability was expressed as a percentage relative to the untreated cells cultured in medium with 0.1% DMSO and set to 100%, whereas 10% DMSO was used as positive control and set to 0% of viability. The EC50 values were calculated using GraphPad Prism 8.0 software by nonlinear regression of dose–response inhibition.

[2] = target: T1, G-protein coupled receptor 55 (Homo sapiens, UniProt Q9Y2T6); test: Cell Based Antagonist Arrestin LeadHunter Assay; settings: Eurofins, read-out: EC50 or IC50, G-protein coupled receptor 55, antagonist mode
T1 construct: Eurofins (contract assay)
T1 sequence (Q9Y2T6 whole entry): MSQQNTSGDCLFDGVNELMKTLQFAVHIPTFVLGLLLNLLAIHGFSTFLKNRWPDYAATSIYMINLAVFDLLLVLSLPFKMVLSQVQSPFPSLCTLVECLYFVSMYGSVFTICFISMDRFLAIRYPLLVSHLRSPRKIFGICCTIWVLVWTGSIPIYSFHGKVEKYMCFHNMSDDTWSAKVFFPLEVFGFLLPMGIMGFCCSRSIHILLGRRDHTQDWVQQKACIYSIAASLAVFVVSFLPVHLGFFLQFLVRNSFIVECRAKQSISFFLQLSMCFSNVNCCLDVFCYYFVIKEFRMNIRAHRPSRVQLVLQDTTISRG
Excerpt: For displacement assays on G-protein coupled receptor 55 (GPR55), Vasopressin V2 receptor (V2R), Adenosine A1 receptor (A1AR), Fibroblast growth factor receptor 1 (FGFR1), Vascular endothelial growth factor receptor 2 (VEGFR2), Platelet-derived growth factor receptor beta (PDGFRB), Vascular endothelial growth factor receptor 1 (VEGFR1), Thromboxane Synthase (TXS) and Phosphodiesterase 10A (PDE10A), we commissioned the Eurofins company which employed its specific experimental methods, accessible at the link: https://www.eurofins.com/.

[3] = target: T2, Poly [ADP-ribose] polymerase 1 (Homo sapiens, UniProt P09874); test: PARP1 Colorimetric Assay Kit (BPS Bioscience); format: biochemical; settings: top concentration 30 μM; read-out: EC50 or IC50, Poly [ADP-ribose] polymerase 1
T2 construct: purchased BPS Bioscience
T2 sequence (P09874 whole entry): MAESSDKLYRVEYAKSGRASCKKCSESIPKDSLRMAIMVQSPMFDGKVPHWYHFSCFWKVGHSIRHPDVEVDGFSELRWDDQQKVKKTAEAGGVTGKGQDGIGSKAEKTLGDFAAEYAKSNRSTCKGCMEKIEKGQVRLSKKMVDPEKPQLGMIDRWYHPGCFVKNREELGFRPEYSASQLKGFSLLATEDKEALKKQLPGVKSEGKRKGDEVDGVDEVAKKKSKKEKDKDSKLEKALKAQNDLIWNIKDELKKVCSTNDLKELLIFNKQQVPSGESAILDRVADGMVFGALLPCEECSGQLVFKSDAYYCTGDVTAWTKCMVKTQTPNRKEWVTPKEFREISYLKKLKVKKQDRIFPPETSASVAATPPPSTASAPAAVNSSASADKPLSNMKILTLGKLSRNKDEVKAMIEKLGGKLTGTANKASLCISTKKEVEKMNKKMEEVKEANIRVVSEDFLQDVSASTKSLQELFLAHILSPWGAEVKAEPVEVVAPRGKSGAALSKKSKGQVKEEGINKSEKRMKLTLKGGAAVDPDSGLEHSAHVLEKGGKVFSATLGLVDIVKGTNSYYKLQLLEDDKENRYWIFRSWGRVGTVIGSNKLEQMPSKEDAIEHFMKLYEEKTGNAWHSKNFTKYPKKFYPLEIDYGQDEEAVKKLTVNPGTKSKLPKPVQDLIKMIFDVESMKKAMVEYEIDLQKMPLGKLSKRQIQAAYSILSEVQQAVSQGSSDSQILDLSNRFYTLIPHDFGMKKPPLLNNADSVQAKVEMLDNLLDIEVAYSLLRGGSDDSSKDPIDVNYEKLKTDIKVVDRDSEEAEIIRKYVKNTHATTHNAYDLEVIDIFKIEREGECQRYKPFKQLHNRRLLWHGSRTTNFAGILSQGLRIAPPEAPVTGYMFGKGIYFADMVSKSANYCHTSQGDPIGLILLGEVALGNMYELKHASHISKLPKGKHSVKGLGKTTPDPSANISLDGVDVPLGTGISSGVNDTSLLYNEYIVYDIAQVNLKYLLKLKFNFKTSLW
Description: The assay was performed in a volume of 50 μL in 96-well transparent plates. The PARP1 assay kit (BPS Bioscience, USA) was performed by first coating the 96-well plate with histone proteins, then left at 4 °C overnight. Next, Poly [ADP-ribose] polymerase 1 (PARP1) enzyme (final concentration, 0.33 ng per reaction), a mixture of biotinylated NAD^+ (PARP substrate) and compounds were incubated for 1 h at room temperature. The compounds were added at different concentrations in the reaction buffer, starting from a final concentration of 30 μM. Buffer with the same amount of DMSO (1%) was used as a negative control. After incubation, the plate was treated with streptavidin-HRP followed by the addition of the colorimetric HRP substrate generating a colored solution. The generated signal was read at an absorbance of 450 nm using a microplate reader with UV/vis spectrophotometer (Multiskan Go, Thermo Fisher Scientific, Waltham, MA, USA). Experiments were performed in triplicate. IC50 values were calculated with GraphPad Prism 8.0 software by nonlinear dose–response inhibition regression.

[4] = target: T3, rat TRPA1 (Rattus norvegicus, UniProt Q6RI86); test: Ca2+-imaging assay with Fluo-4 AM; format: cell-based; settings: agonist effect, HEK-293 cells overexpressing rat TRPA1, Fluo-4 AM; read-out: EC50 or IC50, transient receptor potential A1
T3 construct: expressed in transfected cells; host or cells: HEK-293
T3 sequence (Q6RI86 whole entry): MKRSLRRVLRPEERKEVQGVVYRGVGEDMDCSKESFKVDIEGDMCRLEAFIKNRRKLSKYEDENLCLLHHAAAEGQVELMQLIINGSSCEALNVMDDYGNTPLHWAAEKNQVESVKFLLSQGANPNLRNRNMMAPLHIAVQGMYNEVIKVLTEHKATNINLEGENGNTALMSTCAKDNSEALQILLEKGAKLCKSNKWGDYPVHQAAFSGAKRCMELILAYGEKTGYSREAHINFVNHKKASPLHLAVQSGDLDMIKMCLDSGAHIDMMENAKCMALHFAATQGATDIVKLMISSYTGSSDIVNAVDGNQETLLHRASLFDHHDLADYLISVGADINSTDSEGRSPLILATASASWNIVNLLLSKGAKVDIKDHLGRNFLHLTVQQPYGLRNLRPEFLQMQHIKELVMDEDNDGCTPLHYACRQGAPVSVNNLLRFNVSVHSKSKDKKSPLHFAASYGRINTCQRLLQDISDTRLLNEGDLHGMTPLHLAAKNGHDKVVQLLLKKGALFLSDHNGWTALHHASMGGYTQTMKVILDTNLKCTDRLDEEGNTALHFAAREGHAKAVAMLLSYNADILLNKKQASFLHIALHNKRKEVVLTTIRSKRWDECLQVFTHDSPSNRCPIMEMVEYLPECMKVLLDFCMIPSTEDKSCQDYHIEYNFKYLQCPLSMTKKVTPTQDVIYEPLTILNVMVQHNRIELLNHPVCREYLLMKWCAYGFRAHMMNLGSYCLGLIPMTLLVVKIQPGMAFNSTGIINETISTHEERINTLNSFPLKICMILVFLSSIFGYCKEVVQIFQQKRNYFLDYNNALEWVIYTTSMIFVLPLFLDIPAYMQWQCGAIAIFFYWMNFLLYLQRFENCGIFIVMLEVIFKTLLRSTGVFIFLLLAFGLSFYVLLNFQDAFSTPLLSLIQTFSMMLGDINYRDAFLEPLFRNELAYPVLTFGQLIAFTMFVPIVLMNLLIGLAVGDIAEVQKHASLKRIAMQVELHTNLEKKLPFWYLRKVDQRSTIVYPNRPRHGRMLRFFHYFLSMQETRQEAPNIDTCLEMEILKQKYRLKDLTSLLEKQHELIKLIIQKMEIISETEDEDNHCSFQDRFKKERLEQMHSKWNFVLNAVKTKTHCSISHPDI
Description: (§1) HEK-293 cells, stably overexpressing recombinant rat TRPM8 or rat TRPA1, were cultured as monolayers in 100 mm Petri dishes using Minimum Essential Media supplemented with 2 mM glutamine, 1% nonessential amino acids, 10% FBS, and maintained at 37 °C under 5% CO2. On the day of the experiment, both nontransfected and transfected HEK-293 cells were loaded for 1 h at room temperature in the dark with the calcium-sensitive fluorescent probe Fluo-4 AM (4 μM, dissolved in dimethyl sulfoxide with 0.02% Pluronic F-127). After loading, cells were washed twice with Tyrode’s solution (145 mM NaCl, 2.5 mM KCl, 1.5 mM CaCl2, 1.2 mM MgCl2, 10 mM D-glucose, 10 mM HEPES, pH 7.4) and transferred to a quartz cuvette (approximately 100,000 cells) in a spectrofluorometer (PerkinElmer LS50B; λEX = 488 nm, λEM = 516 nm) under continuous stirring. Fluorescence was recorded before and after the addition of various concentrations of test compounds. The observed effects were normalized to the response elicited by ionomycin (4 μM). Baseline fluorescence values from nontransfected HEK-293 cells were subtracted from the measurements obtained in transfected cells. The potency of the test compounds was expressed as the concentration required to elicit a half-maximal agonist effect (EC50), measured as half-maximal increases in intracellular calcium concentration ([Ca^2+]-i). The efficacy of TRPA1 agonists was reported as a percentage of the maximal effect induced by allyl isothiocyanate (AITC, 100 μM). Antagonistic or desensitizing effects were assessed by preincubating cells with the test compounds in the quartz cuvette for 5 min before stimulating them with the specific TRP agonist (AITC, 100 μM for TRPA1, or icilin, 0.25 μM for TRPM8). IC50 values were determined as the concentration required to produce a half-maximal inhibition of the agonist effect, with the agonist-induced [Ca^2+]-i response set at 100%. Measurements of [Ca^2+]-i in TRPM8-expressing cells were conducted at 22 °C using a Fluorescence Peltier System (PTP-1, PerkinElmer). All experiments were performed in triplicate or greater. Curve fitting (sigmoidal concentration–response with variable slope) and parameter estimation were conducted using GraphPad Prism 10 (GraphPad Software Inc., San Diego, CA).

[5] = target: T4, rat TRPM8 (Rattus norvegicus, UniProt Q8R455); test: Ca2+-imaging assay with Fluo-4 AM; format: cell-based; settings: inhibition of icilin 0.25 μM, HEK-293 cells overexpressing rat TRPM8, Fluo-4 AM; read-out: EC50 or IC50, transient receptor potential M8
T4 construct: expressed in transfected cells; host or cells: HEK-293
T4 sequence (Q8R455 whole entry): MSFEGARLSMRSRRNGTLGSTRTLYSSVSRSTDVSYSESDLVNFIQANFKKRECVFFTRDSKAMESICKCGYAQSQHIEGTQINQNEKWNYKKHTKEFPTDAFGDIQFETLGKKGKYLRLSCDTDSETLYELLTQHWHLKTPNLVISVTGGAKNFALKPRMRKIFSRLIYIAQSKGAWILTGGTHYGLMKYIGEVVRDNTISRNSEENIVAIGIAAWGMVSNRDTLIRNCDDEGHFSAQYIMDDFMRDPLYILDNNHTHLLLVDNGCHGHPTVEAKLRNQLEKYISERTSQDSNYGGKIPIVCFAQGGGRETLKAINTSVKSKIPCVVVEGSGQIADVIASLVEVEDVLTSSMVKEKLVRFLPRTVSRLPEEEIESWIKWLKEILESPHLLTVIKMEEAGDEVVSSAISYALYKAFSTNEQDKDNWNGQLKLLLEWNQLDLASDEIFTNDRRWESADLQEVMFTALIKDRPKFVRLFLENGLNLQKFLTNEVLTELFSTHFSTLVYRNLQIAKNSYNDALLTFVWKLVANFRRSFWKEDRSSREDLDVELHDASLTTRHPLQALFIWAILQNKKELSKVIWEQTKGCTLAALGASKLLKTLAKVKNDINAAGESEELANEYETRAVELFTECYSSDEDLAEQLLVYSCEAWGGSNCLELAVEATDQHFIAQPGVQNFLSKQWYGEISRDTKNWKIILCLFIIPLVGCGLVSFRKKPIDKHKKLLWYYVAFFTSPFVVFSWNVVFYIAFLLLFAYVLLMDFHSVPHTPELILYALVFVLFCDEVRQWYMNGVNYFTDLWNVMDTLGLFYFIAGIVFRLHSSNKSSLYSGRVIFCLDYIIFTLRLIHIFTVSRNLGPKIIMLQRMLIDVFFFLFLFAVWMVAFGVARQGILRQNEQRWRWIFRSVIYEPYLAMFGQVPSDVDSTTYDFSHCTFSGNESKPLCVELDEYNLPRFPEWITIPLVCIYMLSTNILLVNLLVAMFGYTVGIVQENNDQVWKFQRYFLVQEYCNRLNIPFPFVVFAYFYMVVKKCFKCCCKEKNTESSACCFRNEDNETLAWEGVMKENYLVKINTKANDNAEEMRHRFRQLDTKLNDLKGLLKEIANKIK
Description: as §1

## CC(C)C[C@H]1C(=O)N(Cc2ccc(C(F)(F)F)cc2)c2ccccc2C(=O)N1Cc1ccc(C(F)(F)F)cc1 [Compound 31, (S)-3-Isobutyl-1,4-bis(4-(trifluoromethyl)benzyl)-3,4-dihydro-1H-benzo[e][1,4]diazepine-2,5-dione]
[1]
  EC50 at 24 h: > 40 µM
[2]
  IC50: ≥ 30 µM
[3]
  IC50: > 30 µM
[4]
  EC50: 0.2 ± 0.09 µM
[5]
  IC50: > 30 µM

## CC(C)C[C@@H](C(=O)OCc1ccccc1)N1Cc2ccccc2NC1=O [Compound 63, Benzyl (S)-4-Methyl-2-(2-oxo-1,4-dihydroquinazolin-3(2H)-yl)pentanoate]
[1]
  EC50 at 24 h: 21.4 ± 0.78 µM
[2]
  IC50: ≥ 30 µM
[3]
  IC50: > 30 µM
[4]
  EC50: 2.54 ± 1.2 µM
[5]
  IC50: 0.36 ± 0.08 µM
